From patent US20130303518A1, “Methods of Inhibiting the Catalytic Activity of a Protein Kinase and of Treating a Protein Kinase Related Disorder” (JIANGSU HANSOH PHARMACEUTICAL CO., LTD., priority 2007, published 2013) come the findings set out here.

SMILES strings stand for the structures. Marks after values point to notes of the source that are not given here.

For experiment [1], the target named is T1, c-Kit (Homo sapiens, UniProt P10721).
T1 construct: purchased invitrogen PV3081
Kind of experiment: Inhibition of receptor tyrosine kinases activity assay. Format: biochemical.

The target in experiment [2] is T2, PDGFRβ (Homo sapiens, UniProt P09619).
T2 construct: purchased invitrogen PV3082
T2 sequence (P09619 33-1106): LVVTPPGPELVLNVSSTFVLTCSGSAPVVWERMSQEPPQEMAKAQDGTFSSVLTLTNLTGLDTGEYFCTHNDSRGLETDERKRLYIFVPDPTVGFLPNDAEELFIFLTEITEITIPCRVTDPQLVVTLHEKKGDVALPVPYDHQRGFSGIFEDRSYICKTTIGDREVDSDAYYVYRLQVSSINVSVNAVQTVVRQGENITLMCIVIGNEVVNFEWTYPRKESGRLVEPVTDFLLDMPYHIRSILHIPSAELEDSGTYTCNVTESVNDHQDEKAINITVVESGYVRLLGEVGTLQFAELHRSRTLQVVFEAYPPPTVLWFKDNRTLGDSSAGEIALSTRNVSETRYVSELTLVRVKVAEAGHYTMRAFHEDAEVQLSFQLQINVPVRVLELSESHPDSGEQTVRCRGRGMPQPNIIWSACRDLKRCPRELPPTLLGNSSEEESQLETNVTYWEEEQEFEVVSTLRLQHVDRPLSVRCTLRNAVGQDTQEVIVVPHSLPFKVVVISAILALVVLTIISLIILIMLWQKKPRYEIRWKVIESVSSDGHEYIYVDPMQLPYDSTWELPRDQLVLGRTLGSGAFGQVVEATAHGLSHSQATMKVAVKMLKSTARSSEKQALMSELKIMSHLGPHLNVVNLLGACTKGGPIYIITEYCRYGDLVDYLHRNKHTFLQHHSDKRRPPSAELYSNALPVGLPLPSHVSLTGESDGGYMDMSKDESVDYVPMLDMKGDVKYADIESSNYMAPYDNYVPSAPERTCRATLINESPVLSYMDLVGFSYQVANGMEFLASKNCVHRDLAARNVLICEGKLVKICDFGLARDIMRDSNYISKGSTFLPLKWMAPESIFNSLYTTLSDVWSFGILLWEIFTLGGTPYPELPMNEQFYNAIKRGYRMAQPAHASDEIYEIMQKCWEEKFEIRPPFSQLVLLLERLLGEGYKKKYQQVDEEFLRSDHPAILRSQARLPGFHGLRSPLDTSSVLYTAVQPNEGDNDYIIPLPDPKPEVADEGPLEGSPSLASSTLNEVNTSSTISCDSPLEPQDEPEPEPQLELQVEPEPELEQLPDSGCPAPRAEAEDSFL
Described as above. Type of experiment: biochemical.

The target in experiment [3] is T3, Flt3 (Homo sapiens, UniProt P36888).
T3 construct: purchased invitrogen PV3182
T3 sequence (P36888 27-993): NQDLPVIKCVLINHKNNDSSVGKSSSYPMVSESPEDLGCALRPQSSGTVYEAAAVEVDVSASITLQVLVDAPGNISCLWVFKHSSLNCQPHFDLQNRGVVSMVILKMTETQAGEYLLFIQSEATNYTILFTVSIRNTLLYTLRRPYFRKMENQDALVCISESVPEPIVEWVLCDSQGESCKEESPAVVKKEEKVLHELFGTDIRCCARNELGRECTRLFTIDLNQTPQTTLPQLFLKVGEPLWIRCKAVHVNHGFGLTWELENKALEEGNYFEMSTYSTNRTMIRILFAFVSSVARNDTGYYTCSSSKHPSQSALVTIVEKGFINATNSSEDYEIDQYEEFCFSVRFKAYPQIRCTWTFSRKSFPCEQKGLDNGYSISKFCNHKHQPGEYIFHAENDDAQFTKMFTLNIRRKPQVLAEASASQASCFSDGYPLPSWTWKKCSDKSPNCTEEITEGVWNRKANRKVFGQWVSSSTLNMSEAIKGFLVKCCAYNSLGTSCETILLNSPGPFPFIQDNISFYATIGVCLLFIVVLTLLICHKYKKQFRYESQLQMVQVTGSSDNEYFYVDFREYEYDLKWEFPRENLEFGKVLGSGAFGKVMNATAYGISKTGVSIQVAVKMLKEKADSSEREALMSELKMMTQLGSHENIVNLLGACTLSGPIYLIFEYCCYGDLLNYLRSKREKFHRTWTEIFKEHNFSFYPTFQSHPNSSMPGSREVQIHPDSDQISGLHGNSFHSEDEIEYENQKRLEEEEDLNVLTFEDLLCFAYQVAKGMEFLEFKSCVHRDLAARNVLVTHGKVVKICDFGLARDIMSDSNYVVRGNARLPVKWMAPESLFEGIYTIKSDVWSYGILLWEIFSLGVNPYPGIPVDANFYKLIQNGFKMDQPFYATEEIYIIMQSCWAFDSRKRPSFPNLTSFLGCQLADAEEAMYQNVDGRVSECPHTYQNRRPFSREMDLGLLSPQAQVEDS
Described as above. Type of experiment: biochemical.

Experiment [4] has as its system Mo7e (human megakaryoblastic leukemia cell line). The experiment can be described thus: Inhibition of cancer cell proliferation assay (SRB). Format: cell-based. The following applies: mean ± SD, 72 hours. The source says: The cellular assay described here is to test the proliferation inhibition activity of the compound of Example 53 on the cancer cells in vitro using Sulforhodamine B (SRB) method. The cancer cells include HUVEC (human umbilical vein endothelial cells), HT-29 (human colon cancer cells), Mo7e (human megakaryoblastic leukemia cell line), A431 (human epidermoid carcinoma cells), NCI—H526 (small-cell lung cancer cells), and SK—BR-3 (human breast cancer cells).
Mo7e cancer cell: originally described by Avanzi et al. ((1988) Br. J. Haematol. 69:359-366), was obtained from Genetics Institute (Boston, Mass.) and was maintained in Iscove's modified Dulbecco's medium (Life Technologies, Inc.);
The following in vitro assay is to determine the activity of the tested compound for inhibiting the proliferation of the cancer cells mentioned above. The activity is represented by the IC50 value. The general procedures of the assay are given as follows: Cancer cells mentioned above were chosen and seeded to 96-well cell culture plate at a suitable concentration (e.g., 5000 cells/mL medium). […] 72 hours later, the activity of the tested compound for inhibiting the cell proliferation was determined by using Sulforhodamine B (SRB) method. IC50 value on tested cells is calculated by the data of inhibition rates of serial concentrations of the tested compound.

For experiment [5], the system named is NCI—H460 (non-small cell lung cancer). Kind of experiment: Anticancer pharmacodynamic assay in vivo, xenograft. More on the design: species or system nude mice. The settings on record: for T/C (%): relative tumor volume (%): NCI-H460 xenograft, d0-13, P < 0.01 vs Control. The text has this: (§1) The test method and steps are the same with those disclosed in “PHARMACODYNAMIC ASSAYS IN VIVO” of the present invention. The therapeutic effects of the compound of Example 53 against xenografts of colon cancer, non-small cell lung cancer, liver cancer, melanoma, renal cancer in nude mice are estimated.
NCI—H460 (non-small cell lung cancer): Cell Bank, Chinese Academy of Sciences, TCHu205;
(§2) Nude mice were hypodermic inoculated HT-29 human colon cancer cell. After tumors grew to 100-300 mm^3, mice were randomly divided into teams (d0). The volume of tumors and weigh of the mice were measured for 2-3 times per week. The calculation formula of the volume of tumor (V) is: V=½×a×b^2, a: length of tumor, b: width of tumor.

For experiment [6], the system named is Bel-7402(liver cancer). The description is as above. Set-up: species or system nude mice. The settings on record: for T/C (%): relative tumor volume (%): Bel-7402 xenograft.
Excerpt: as §1
Bel-7402(liver cancer): Cell Bank, Chinese Academy of Sciences, TCHu10;
as §2

The subject of experiment [7] is A375 (melanoma). Described as above. More on the design: species or system nude mice. The settings on record: for T/C (%): relative tumor volume (%): A375 xenograft.
Excerpt: as §1
A375 (melanoma): Cell Bank, Chinese Academy of Sciences, TCHu4;
as §2

The test system of experiment [8] is Caki-1 (renal cancer). The experiment is described as above. Set-up: species or system nude mice. The following applies: for T/C (%): relative tumor volume (%): Caki-1 xenograft, d0-22.
Excerpt: as §1
Caki-1 (renal cancer): Cell Bank, Chinese Academy of Sciences, TCHu135.
as §2

Setting [9] is: mean ± SD, 20 μM ATP, 25° C., 45 minutes.

T1 sequence (P10721 26-976): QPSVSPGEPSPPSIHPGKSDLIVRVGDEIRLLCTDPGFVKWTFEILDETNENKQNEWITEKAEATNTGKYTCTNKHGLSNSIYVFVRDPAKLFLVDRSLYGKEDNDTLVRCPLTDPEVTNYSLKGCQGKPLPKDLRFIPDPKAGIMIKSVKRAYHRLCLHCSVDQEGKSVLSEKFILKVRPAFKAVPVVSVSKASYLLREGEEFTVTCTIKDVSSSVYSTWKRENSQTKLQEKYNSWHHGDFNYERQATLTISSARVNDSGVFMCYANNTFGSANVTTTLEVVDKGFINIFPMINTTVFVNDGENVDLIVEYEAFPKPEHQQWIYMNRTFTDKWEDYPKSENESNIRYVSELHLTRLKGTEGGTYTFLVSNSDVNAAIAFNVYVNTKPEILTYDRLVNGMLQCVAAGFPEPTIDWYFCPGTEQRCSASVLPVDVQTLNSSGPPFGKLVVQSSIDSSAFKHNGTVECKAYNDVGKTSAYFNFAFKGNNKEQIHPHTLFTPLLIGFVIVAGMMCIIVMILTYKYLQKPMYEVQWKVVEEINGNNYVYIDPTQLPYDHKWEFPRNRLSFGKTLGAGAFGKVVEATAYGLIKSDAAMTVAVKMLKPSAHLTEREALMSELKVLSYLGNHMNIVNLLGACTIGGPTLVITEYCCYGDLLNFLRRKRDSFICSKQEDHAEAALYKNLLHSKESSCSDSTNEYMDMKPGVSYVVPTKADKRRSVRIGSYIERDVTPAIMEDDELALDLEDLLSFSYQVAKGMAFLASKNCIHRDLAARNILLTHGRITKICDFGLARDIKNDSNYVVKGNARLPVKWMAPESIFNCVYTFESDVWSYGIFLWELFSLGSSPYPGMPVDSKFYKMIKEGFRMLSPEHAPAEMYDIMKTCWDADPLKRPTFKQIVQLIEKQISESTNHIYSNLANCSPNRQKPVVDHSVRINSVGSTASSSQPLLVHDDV

On to `Cc1c(/C=C2\C(=O)Nc3ccc(F)cc32)[nH]c2c1C(=O)N(C[C@H](O)CN1CCOCC1)CCC2` [Example 53, (R,Z)-2-(5-Fluoro-2-oxo-1,2-dihydro-indol-3-ylidenemethyl)-5-(2-hydroxy-3-morpholin-4-yl-propyl)-3-methyl-5,6,7,8-tetrahydro-1H-pyrrolo[3,2-c]azepin-4-one], for which the “inhibition of kinase activity (in words)” value in experiment [1] (c-Kit), in experiment [2] (PDGFRβ) and in experiment [3] (Flt3) was “obvious activity” each time. Also, the IC50 in experiment [1] (setting [9]) was determined as 3.3 ± 3.6 nM; in experiment [2] (setting [9]) it was 41.5 ± 22.7 nM; in experiment [3] (setting [9]), 19.3 ± 3.1 nM; in experiment [4], 800 nM. Also, the “T/C (%): relative tumor volume (%)” value in experiment [5] (15 mg/kg p.o) was 41.1* %; in experiment [5] (30 mg/kg p.o), 46.3* %; in experiment [5] (60 mg/kg p.o), 58.4* %; in experiment [6] (15 mg/kg p.o d0-17), 39.8%; in experiment [6] (30 mg/kg p.o d0-17) it was 29.2%; in experiment [6] (60 mg/kg p.o d0-17), 13.3%. For the same molecule, the “T/C (%): relative tumor volume (%)” value in experiment [7] (15 mg/kg p.o d0-16) is 82.5%; in experiment [7] (30 mg/kg p.o d0-16), 58.5%; in experiment [7] (60 mg/kg p.o d0-16), 46.4%; in experiment [8] (15 mg/kg p.o), 73.0%; in experiment [8] (30 mg/kg p.o), 45.5%; in experiment [8] (60 mg/kg p.o), 36.8%. Further, the “anticancer activity against xenograft (in words)” value in experiment [5] (NCI—H460 xenograft in nude mice), in experiment [6] (Bel-7402 xenograft in nude mice), in experiment [7] (A375 xenograft in nude mice) and in experiment [8] (Caki-1 xenograft in nude mice) was “obvious anticancer activity” throughout.
